# ChEMBL document CHEMBL1156276, “Solvent free synthesis, anti-inflammatory and anticancer activity evaluation of tricyclic and tetracyclic benzimidazole derivatives” (2010)
# Structures can show the parent of a compound that is named as a salt.
# Key:
# Assay type in all cases: functional
# [1] = test system: HOP-62; test: Anticancer activity against human HOP62 cells assessed as cell growth inhibition at 10 uM after 48 hrs by SRB assay; conditions: HOP-62, 48 h, read-out: GI
# [2] = test system: PC-3; test: Anticancer activity against human PC3 cells assessed as cell growth inhibition at 10 uM after 48 hrs by SRB assay; conditions: PC-3, 48 h, read-out: GI
# [3] = test system: A549; test: Anticancer activity against human A549 cells assessed as cell growth inhibition at 10 uM after 48 hrs by SRB assay; conditions: A549, 48 h, read-out: GI
# [4] = test system: Rattus norvegicus; test: Antiinflammatory activity against carrageenan-induced paw edema in rat assessed as paw volume at 50 mg/kg, po administered 30 mins before carrageenan challenge measured after 1 to 3 hrs by water plethysmometer relative to control
# [5] = test system: SF-295; test: Anticancer activity against human SF295 cells assessed as cell growth inhibition at 10 uM after 48 hrs by SRB assay; conditions: SF-295, 48 h, read-out: GI
# [6] = test system: IGROV-1; test: Anticancer activity against human IGROV1 cells assessed as cell growth inhibition at 10 uM after 48 hrs by SRB assay; conditions: IGROV-1, 48 h, read-out: GI
# [7] = test system: MCF7; test: Anticancer activity against human MCF7 cells assessed as cell growth inhibition at 10 uM after 48 hrs by SRB assay; conditions: MCF7, 48 h, read-out: GI
compound,measurement,setting,value
Cc1cc2[nH]c3cc4ccccc4c(=O)n3c2cc1C,inhibition of growth at 10 µM,[1],0%
same,inhibition of growth at 10 µM,[2],39%
same,inhibition of growth at 10 µM,[3],41%
same,Activity,[4],29.6%
same,inhibition of growth at 10 µM,[5],13%
same,inhibition of growth at 10 µM,[6],7%
same,inhibition of growth at 10 µM,[7],22%
O=c1c2ccccc2cc2[nH]c3cccc(O)c3n12,inhibition of growth at 10 µM,[1],0%
same,inhibition of growth at 10 µM,[2],13%
same,inhibition of growth at 10 µM,[3],0%
same,Activity,[4],31.8%
same,inhibition of growth at 10 µM,[5],55%
same,inhibition of growth at 10 µM,[6],15%
same,inhibition of growth at 10 µM,[7],20%
O=C1c2nccnc2C2=NC3CCCCC3N12 (configuration not stated),inhibition of growth at 10 µM,[1],6%
same,inhibition of growth at 10 µM,[2],15%
same,inhibition of growth at 10 µM,[3],10%
same,Activity,[4],25.6%
same,inhibition of growth at 10 µM,[5],37%
same,inhibition of growth at 10 µM,[6],28%
same,inhibition of growth at 10 µM,[7],48%
Cc1cc2nc3n(c2cc1C)C(=O)c1nccnc1-3,inhibition of growth at 10 µM,[1],0%
same,inhibition of growth at 10 µM,[2],39%
same,inhibition of growth at 10 µM,[3],25%
same,Activity,[4],15.9%
same,inhibition of growth at 10 µM,[5],13%
same,inhibition of growth at 10 µM,[6],7%
same,inhibition of growth at 10 µM,[7],22%
O=C1c2nccnc2C2=Nc3ccccc3CN12,inhibition of growth at 10 µM,[1],23%
same,inhibition of growth at 10 µM,[2],46%
same,inhibition of growth at 10 µM,[3],48%
same,Activity,[4],28.6%
same,inhibition of growth at 10 µM,[5],66%
same,inhibition of growth at 10 µM,[6],55%
same,inhibition of growth at 10 µM,[7],56%
O=C1c2nccnc2-c2nc3ccccc3n21,inhibition of growth at 10 µM,[1],10%
same,inhibition of growth at 10 µM,[2],13%
same,inhibition of growth at 10 µM,[3],0%
same,Activity,[4],10%
same,inhibition of growth at 10 µM,[5],25%
same,inhibition of growth at 10 µM,[6],15%
same,inhibition of growth at 10 µM,[7],20%
O=C1CCC2=NC3CCCCC3N12 (configuration not stated),inhibition of growth at 10 µM,[1],0%
same,inhibition of growth at 10 µM,[2],16%
same,inhibition of growth at 10 µM,[3],2%
same,Activity,[4],19.7%
same,inhibition of growth at 10 µM,[5],38%
same,inhibition of growth at 10 µM,[6],2%
same,inhibition of growth at 10 µM,[7],13%
O=C1CCc2nc3cccc(O)c3n21,inhibition of growth at 10 µM,[1],9%
same,inhibition of growth at 10 µM,[2],13%
same,inhibition of growth at 10 µM,[3],0%
same,Activity,[4],39.2%
same,inhibition of growth at 10 µM,[5],53%
same,inhibition of growth at 10 µM,[6],20%
same,inhibition of growth at 10 µM,[7],22%
O=C1CCc2nc3ccc(Br)cc3n21,inhibition of growth at 10 µM,[1],16%
same,inhibition of growth at 10 µM,[2],40%
same,inhibition of growth at 10 µM,[3],12%
same,Activity,[4],10%
same,inhibition of growth at 10 µM,[5],0%
same,inhibition of growth at 10 µM,[6],50%
same,inhibition of growth at 10 µM,[7],31%
O=C1CCc2nc3ccc([N+](=O)[O-])cc3n21,inhibition of growth at 10 µM,[1],0%
same,inhibition of growth at 10 µM,[2],8%
same,inhibition of growth at 10 µM,[3],5%
same,Activity,[4],0%
same,inhibition of growth at 10 µM,[5],38%
same,inhibition of growth at 10 µM,[6],0%
same,inhibition of growth at 10 µM,[7],12%
N#Cc1ccc2nc3n(c2c1)C(=O)CC3,inhibition of growth at 10 µM,[1],0%
same,inhibition of growth at 10 µM,[2],3%
same,inhibition of growth at 10 µM,[3],6%
same,Activity,[4],9%
same,inhibition of growth at 10 µM,[5],52%
same,inhibition of growth at 10 µM,[6],21%
same,inhibition of growth at 10 µM,[7],25%
Cc1cccc2nc3n(c12)C(=O)CC3,inhibition of growth at 10 µM,[1],0%
same,inhibition of growth at 10 µM,[2],14%
same,inhibition of growth at 10 µM,[3],2%
same,Activity,[4],29.9%
same,inhibition of growth at 10 µM,[5],38%
same,inhibition of growth at 10 µM,[6],3%
same,inhibition of growth at 10 µM,[7],8%
O=C1CCc2nc3ccc(Cl)cc3n21,inhibition of growth at 10 µM,[1],11%
same,inhibition of growth at 10 µM,[2],14%
same,inhibition of growth at 10 µM,[3],3%
same,Activity,[4],27.6%
same,inhibition of growth at 10 µM,[5],37%
same,inhibition of growth at 10 µM,[6],0%
same,inhibition of growth at 10 µM,[7],52%
O=c1c2ccccc2cc2n1C1CCCCC1N2 (configuration not stated),inhibition of growth at 10 µM,[1],12%
same,inhibition of growth at 10 µM,[2],6%
same,inhibition of growth at 10 µM,[3],10%
same,Activity,[4],34.7%
same,inhibition of growth at 10 µM,[5],0%
same,inhibition of growth at 10 µM,[6],28%
same,inhibition of growth at 10 µM,[7],6%
Cc1cc2nc3n(c2cc1C)C(=O)CC3,inhibition of growth at 10 µM,[1],4%
same,inhibition of growth at 10 µM,[2],7%
same,inhibition of growth at 10 µM,[3],0%
same,Activity,[4],39.4%
same,inhibition of growth at 10 µM,[5],54%
same,inhibition of growth at 10 µM,[6],26%
same,inhibition of growth at 10 µM,[7],8%
COc1cccc2c1C(=O)c1c(O)c3c(c(O)c1C2=O)C[C@@](O)(C(=O)CO)C[C@@H]3O[C@H]1C[C@H](N)[C@H](O)[C@H](C)O1 [DOXORUBICIN HYDROCHLORIDE],inhibition of growth at 10 µM,[5],69%
same,inhibition of growth at 10 µM,[7],72%
CO[C@@]12[C@H](COC(N)=O)C3=C(C(=O)C(C)=C(N)C3=O)N1C[C@@H]1N[C@@H]12 [MITOMYCIN],inhibition of growth at 10 µM,[2],53%
same,inhibition of growth at 10 µM,[5],43%
CC(=O)O[C@H]1C(=O)[C@@]2(C)[C@H]([C@H](OC(=O)c3ccccc3)[C@]3(O)C[C@H](OC(=O)[C@H](O)[C@@H](NC(=O)c4ccccc4)c4ccccc4)C(C)=C1C3(C)C)[C@]1(OC(C)=O)CO[C@@H]1C[C@@H]2O [PACLITAXEL],inhibition of growth at 10 µM,[1],42%
same,inhibition of growth at 10 µM,[3],50%
same,inhibition of growth at 10 µM,[6],43%
